In PubChem BioAssay AID463199 (Broad Institute, 2010):
Activity calls are given as the source filed them.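 Rule for the calls: active = AC50, the dose giving half-maximal effect, exceeds a fixed cutoff for a compound that rescues yeast growth under heat; inactive = the rest, inconclusive results apart.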

Test system: S. cerevisiae Burl-1 ts mutant growth, BacTiter-Glo, 38.5C 24 h
Test: restored growth of temperature-sensitive Burl-1 yeast – whole organism, S. cerevisiae, Burl-1 ts mutant, luminescence, counter-screen for SUMOylation pathway inhibitor project, dose response (AID 463199)

In the case of CC1=CC2=NC(=O)/C(=C\c3cc(C)n(-c4ccccc4)c3C)C(=N)N2O1, the AC50 was > 42 µM (inactive).

For CCCCn1c(/C=N/Nc2nc3ccccc3[nH]2)nc2ccccc21, the AC50 was > 42 µM (inactive).

C/C(O)=C(\N=Nc1cc(C)ccc1O)C(N)=O was tested, and the AC50 was > 42 µM (inactive).

In the case of Fc1ccc2nc(C3CCN(Cc4nc(CC5CC5)no4)CC3)[nH]c2c1, the AC50 was > 42 µM (inactive).

CC1(C)CC(=O)c2cnc(NC(=O)CSc3nc4ccccc4o3)nc2C1 was tested, and the AC50 was > 42 µM (inactive).

Cc1ccc(S(=O)(=O)NC2CCCCCCC2)cc1 was tested, and the AC50 was > 42 µM (inactive).

c1coc(C2OCC3(CO2)COC(c2ccco2)OC3)c1 (centres undefined) was tested, and the AC50 was > 42 µM (inactive).

Work on c1ccc2c(c1)[nH]c1c(N3CCN(C4CCCCC4)CC3)ncnc12 yielded an AC50 of 39.8 µM.

In the case of O=C(CSc1nc2ccc(Cl)cc2[nH]1)NCc1ccco1, the AC50 was > 42 µM (inactive).

COCc1nnc(NC(=O)CC(C)C)s1 was tested, and the AC50 was > 42 µM (inactive).

In the case of COc1ccc2[nH]cc(CCNS(=O)(=O)c3ccc(C)cc3)c2c1, the AC50 was > 42 µM (inactive).

For Cc1cc(C(F)(F)F)nc(SCC(=O)Nc2cc(C)on2)n1, the AC50 was > 42 µM (inactive).

With COc1ccccc1N1CCN(C(=O)C2CCN(S(=O)(=O)c3ccc(C)cc3)CC2)CC1 the AC50 was > 42 µM (inactive).

COC(=O)c1cccc(NC(=O)c2cccnc2)c1 was tested, and the AC50 was > 42 µM (inactive).

CCOC(=O)C(NC(=O)c1ccccc1)(N1CCOCC1)C(F)(F)F (centres undefined) was tested, and the AC50 was > 42 µM (inactive).

For Cc1c(Cl)c([N+](=O)[O-])nn1CC(=O)NC12CC3CC(CC(C3)C1)C2, the AC50 was > 42 µM (inactive).

With CCOc1ccc(N(CC)S(=O)(=O)c2cccc3nsnc23)cc1 the AC50 was > 42 µM (inactive).

In the case of O=C(CSc1nnc(COc2ccccc2Cl)o1)NC(=O)NC1CCCC1, the AC50 was > 42 µM (inactive).

With O=C(c1cc2c(ccc3ccccc32)oc1=O)N1CCCC1 the AC50 was > 42 µM (inactive).

In the case of Cc1cccc(N/N=C/c2c(O)[nH]c(=S)[nH]c2=O)c1, the AC50 was > 42 µM (inactive).

In the case of CN(C)C(=O)CSc1nc2ccc(N3C(=O)c4ccccc4C3=O)cc2s1, the AC50 was > 42 µM (inactive).

In the case of O=C(Nc1nc2ccccc2s1)c1cccc(S(=O)(=O)N2CCc3ccccc32)c1, the AC50 was > 42 µM (inactive).

CC1(C)C2CC[C@]3(C)C(CC=C4[C@@H]5C[C@@](C)(CO)[C@@H](O)C[C@]56C[C@@H](OC6=O)[C@]43C)[C@@]2(C)CC[C@@H]1O (some centres undefined) was tested, and the AC50 was > 42 µM (inactive).

For CCC1C(c2ccccc2)NC(c2ccccc2)CC1(O)c1ccc(F)cc1 (centres undefined), the AC50 was > 42 µM (inactive).

For Cc1cc(NC(=O)c2ccc(N3C(=O)CCC3=O)cc2)no1, the AC50 was > 42 µM (inactive).

For CCN1CCN(C(=O)c2ccc3nc(-c4ccccc4)c(-c4ccccc4)nc3c2)CC1, the AC50 was > 42 µM (inactive).

With O=C1c2nccnc2C(=O)N1c1ccc(C(F)(F)F)cc1 the AC50 was > 42 µM (inactive).

Oc1ccccc1-c1cc(C(F)(F)C(F)F)[nH]n1 was tested, and the AC50 was > 42 µM (inactive).

With C/C(=N/Nc1ccc(F)cc1)c1ccc(Cl)s1 the AC50 was > 42 µM (inactive).

For COc1ccccc1-n1nnnc1SCC(=O)Nc1ccc(C)c(N)c1, the AC50 was > 42 µM (inactive).

For C[N+](C)(C)CC(=O)Nc1ccc(Cl)cc1C(=O)c1ccccc1, the AC50 was > 42 µM (inactive).

For CC(=O)c1cccc(NC(=O)CN(c2cccc(F)c2)S(C)(=O)=O)c1, the AC50 was > 42 µM (inactive).

With Cc1ccc2nc(NC(=O)C3CCN(S(=O)(=O)c4cccnc4)CC3)sc2c1 the AC50 was > 42 µM (inactive).

For CCOC(C(=O)OCCCN(CC)CC)(c1ccccc1)c1ccccc1, the AC50 was > 42 µM (inactive).

With CN1C(=O)c2ccc(NC(=S)NC(=O)C(C)(C)C)cc2C1=O the AC50 was > 42 µM (inactive).

With COc1ccc2[nH]c(C(=O)N/N=C/c3ccccc3OC)cc2c1 the AC50 was > 42 µM (inactive).

O=C(Nc1ccc(Cl)cc1)N1CCC(c2nc(-c3ccc(F)cc3)no2)CC1 was tested, and the AC50 was > 42 µM (inactive).

O=C(CN1CCN(Cc2ccc(F)cc2)CC1)NCc1ccccc1 was tested, and the AC50 was > 42 µM (inactive).

Compound Cc1ccc(C)c(N2CCN(C(c3ccncc3)c3nnnn3Cc3ccccc3)CC2)c1 (centres undefined) has an AC50 of 32.8 µM.

For COc1ccc(Cn2nnnc2CN2CCN(c3ccc(OC)cc3)CC2)cc1, the AC50 was > 42 µM (inactive).

In the case of Cc1ccc(-n2nnnc2SCC#N)cc1, the AC50 was > 42 µM (inactive).

With CCCCC1=CC2=CC(=O)C(C)(OC(=O)CC)C(=O)C2=CN1CCc1ccc(Br)cc1 (centres undefined) the AC50 was > 42 µM (inactive).

For O=C(COC(=O)CSc1ccc([N+](=O)[O-])cc1)NC1CCCCCCC1, the AC50 was > 42 µM (inactive).

COc1cc(NC(=O)CCN2CCN(Cc3ccccc3)CC2)cc(OC)c1 was tested, and the AC50 was > 42 µM (inactive).

For O=C(CCSc1nnnn1-c1ccccc1)N1CCOCC1, the AC50 was > 42 µM (inactive).

With O=C(CCSc1ccccc1)Nc1ncccn1 the AC50 was > 42 µM (inactive).

O=C(NNC(=O)c1ccccc1O)c1ccco1 was tested, and the AC50 was > 42 µM (inactive).

With Cc1ccc(C(=O)NCCCNC(=O)c2ccc(C)nc2)cc1 the AC50 was > 42 µM (inactive).

For C[C@@]12C(=O)Nc3ccc(Br)cc3C(=O)N1[C@H]1c3ccccc3OC[C@@H]1[C@@H]2c1ccccc1, the AC50 was > 42 µM (inactive).

For CNC(=O)NNC(=O)c1csc(-c2ccc(C(F)(F)F)cc2Cl)n1, the AC50 was > 42 µM (inactive).

In the case of Cc1ccnc(NC(=O)c2ccc(Br)s2)c1, the AC50 was > 42 µM (inactive).

In the case of O=S(=O)(Cc1cc(-c2ccccc2)no1)c1ccccc1, the AC50 was > 42 µM (inactive).

For CCOc1ccc(N(CC(=O)NC2CCC(C)CC2)S(=O)(=O)c2c(C)noc2C)cc1 (centres undefined), the AC50 was > 42 µM (inactive).

COC(=O)C12CCC3(SCCS3)C(C(=O)OC)(CCC13SCCS3)C2 was tested, and the AC50 was > 42 µM (inactive).

With CCCCc1ccc(S(=O)(=O)NNC(=S)NCc2ccco2)cc1 the AC50 was > 42 µM (inactive).

For CCC(=O)Nc1ccc(S(=O)(=O)NCc2ccco2)cc1, the AC50 was > 42 µM (inactive).

In the case of COc1ccc(NC(=O)C2CCN(c3cc(C)nc(-c4ccccc4)n3)CC2)cc1, the AC50 was > 42 µM (inactive).

For Cc1nnc(NC(=O)c2ccc(-c3cccc(C(F)(F)F)c3)o2)s1, the AC50 was > 42 µM (inactive).

In the case of Cc1cc(F)ccc1S(=O)(=O)Nc1ccccc1C(=O)Nc1ccc2[nH]c(=O)[nH]c2c1, the AC50 was > 42 µM (inactive).

With C=CCn1c(=N)c(C(=O)NCCCOC)cc2c(=O)n3ccccc3nc21 the AC50 was > 42 µM (inactive).

For COc1ccc(CCN2CC(C(=O)N(C)CC(=O)Nc3cccc(F)c3)CC2=O)cc1OC (centres undefined), the AC50 was > 42 µM (inactive).

Fc1cccc(F)c1-c1nc(-c2ccncc2)no1 was tested, and the AC50 was > 42 µM (inactive).

In the case of Cc1cc(S(=O)(=O)NCC(C)C)ccc1OCC(=O)N1CCOCC1, the AC50 was > 42 µM (inactive).

With Cc1cc(C)n(CCOC(=O)C2C(C=C(Cl)Cl)C2(C)C)n1 (centres undefined) the AC50 was > 42 µM (inactive).

For Cn1c(-c2ccc3c(c2)OCO3)cnc1NC(=O)CCC(=O)NCCc1ccccc1, the AC50 was > 42 µM (inactive).

CC(C(=O)N1CCN(C(=O)c2ccco2)CC1)n1sc2ccccc2c1=O (centres undefined) was tested, and the AC50 was > 42 µM (inactive).

O=C(CCSc1nnc(-c2ccncc2)o1)Nc1ccc(Cl)cc1 was tested, and the AC50 was > 42 µM (inactive).

For Cn1c(CN2CCOCC2)nnc1SCC(=O)Nc1cc(Cl)ccc1Cl, the AC50 was > 42 µM (inactive).

With CSCCc1nc(SCC(=O)Nc2nnc(C)s2)[nH]c1C the AC50 was > 42 µM (inactive).

In the case of O=[N+]([O-])c1ccc(-c2csc(N3CCc4ccccc4C3)n2)cc1, the AC50 was > 42 µM (inactive).

Nc1cc(-c2ccc(Cl)cc2)nn1S(=O)(=O)c1ccc(Cl)cc1 was tested, and the AC50 was > 42 µM (inactive).

In the case of O=Cc1ccccc1OCCN1CCCC1=O, the AC50 was > 42 µM (inactive).

With COc1ccc(NS(=O)(=O)c2ccc(OCC(=O)N3CCOCC3)cc2)cc1Cl the AC50 was > 42 µM (inactive).

With COc1ccc(Cc2nnc(NCCO)[nH]c2=O)cc1 the AC50 was > 42 µM (inactive).

For O=C(CN1CCc2ccccc21)NN1CC(=O)N(c2ccc(Cl)cc2)CC1=O, the AC50 was > 42 µM (inactive).

In the case of CC(=O)NCc1c(Cl)cccc1-n1cccc1, the AC50 was > 42 µM (inactive).

For Cc1nc2ccccc2c(=O)n1CC(=O)N1CCOCC1, the AC50 was > 42 µM (inactive).

COc1ccccc1-c1sc2ccccc2c1-c1ccc2c(c1)OCO2 was tested, and the AC50 was > 42 µM (inactive).

S=c1[nH]ccn1-c1cccc(Cl)c1 was tested, and the AC50 was > 42 µM (inactive).

With O=C(c1ccc([N+](=O)[O-])o1)N1CCN(c2nc3c(Cl)cccc3s2)CC1 the AC50 was > 42 µM (inactive).

In the case of O=c1c2ccccc2nc(SCc2ccc([N+](=O)[O-])cc2)n1CCCO, the AC50 was > 42 µM (inactive).

In the case of CCN(CC)S(=O)(=O)c1ccc(C(=O)NCCc2cc3c(OC)ccc(OC)c3[nH]c2=O)cc1, the AC50 was > 42 µM (inactive).

With C=CCNC(=O)c1onc(CSc2cccc(C)c2)c1C(=O)O the AC50 was > 42 µM (inactive).

O=C(c1ccccc1)C(CN1CCCC1)c1ccccc1 (centres undefined) was tested, and the AC50 was > 42 µM (inactive).

For CC(C)C(CC(=O)NCc1ccco1)c1ccco1 (centres undefined), the AC50 was > 42 µM (inactive).

For CN(C)CCOC(c1ccc(Cl)cc1)c1ccccn1 (centres undefined), the AC50 was > 42 µM (inactive).

With CS(=O)(=O)N(CC(=O)N1CCCCCC1)Cc1ccc(Cl)cc1 the AC50 was > 42 µM (inactive).

O=C(COC(=O)C1COc2ccccc2O1)NC1CCS(=O)(=O)C1 (centres undefined) was tested, and the AC50 was > 42 µM (inactive).

In the case of CC(=O)Nc1ccc(S(=O)(=O)Nc2cccc(-c3ccc4nncn4n3)c2)cc1, the AC50 was > 42 µM (inactive).

Cc1ccc(S(=O)(=O)Oc2ccc(/C=C3\N=C(c4cccc(C)c4)OC3=O)cc2)cc1 was tested, and the AC50 was > 42 µM (inactive).

In the case of CCN1CCCC1CNC(=O)Cn1cnc2ccc(S(=O)(=O)N3CCC(C)CC3)cc2c1=O (centres undefined), the AC50 was > 42 µM (inactive).

For O=S(=O)(NCC1CCCN(Cc2ccccc2O)C1)c1cccc2cccnc12 (centres undefined), the AC50 was > 42 µM (inactive).

For CCOCCn1c(-c2ccc(OC)cc2)nc2ccccc21, the AC50 was > 42 µM (inactive).

For CC(=O)Cc1nsc(Nc2cccc(C)c2)n1, the AC50 was > 42 µM (inactive).

In the case of CCOC(=O)N1CCN(C(=O)c2ccc(OC)c(OC)c2)CC1, the AC50 was > 42 µM (inactive).

CCOc1ccc(C(=O)NNC2CC(=O)N(CCc3ccccc3)C2=O)cc1OC (centres undefined) was tested, and the AC50 was > 42 µM (inactive).

In the case of C[C@@]12C(=O)Nc3cc(F)ccc3C(=O)N1[C@H]1c3ccccc3OC[C@@H]1[C@@H]2c1ccccc1, the AC50 was > 42 µM (inactive).

CCOc1ccc(-c2c(C(=O)N/N=C/c3ccncc3)nnn2-c2nonc2N)cc1 was tested, and the AC50 was > 42 µM (inactive).

With Cc1ccc(NC(=O)Cn2sc3nc(C)cc(C)c3c2=O)c(Cl)c1 the AC50 was > 42 µM (inactive).
